Assay [1] deals with Mus musculus. In words: inhibition of acute TPA-induced ear swelling in mice on oral administration of 0.1 nmol/kg. Format: functional.
For assay [2], the system named is Mus musculus. Nature of the assay: inhibition of acute TPA-induced ear swelling in mice on oral administration of 0.1 nmol/kg; not active. Format: functional, organism-based.
For assay [3], the system named is Mus musculus. Nature of the assay: Percent inhibition of acute TPA-induced ear swelling in mice upon topical application at 2x 100 ug. Format: functional.
Assay [4] is described as follows: Inhibitory dose was determined. Type of assay: functional. Particulars: read-out: ID50 (the source's name).
Assay [5] has as its system Mus musculus. In words: inhibition of acute TPA-induced ear swelling in mice upon topical application of 2x 100 ug. Type of assay: functional.

The results in this text go back to ChEMBL document CHEMBL1137105, “New N-pyridinyl(methyl)-indolalkanamides acting as topical inflammation inhibitors” (2004).

Active and inactive are the calls of the source. The rule behind the calls is not given here.

The compound `O=C(CCc1cn(Cc2ccc(Cl)cc2)c2ccc(Cl)cc12)Nc1ccncc1` came in with an inhibition in vivo at 0.0001 µmol/kg in assay [1] of 64%.
Same read-out and setting: the figure for `O=C(CCn1ccc2ccccc21)Nc1ccncc1` is 77%; for `Cc1cc(C)nc(NC(=O)CCc2cn(Cc3ccc(Cl)cc3)c3ccccc23)c1` it is 64%; for `O=C(CCc1cn(Cc2ccccc2)c2ccccc12)NCc1cccnc1` it is 70%.
On the same count and under the same terms, with `Cc1cc(C)nc(NC(=O)CCc2cn(Cc3ccccc3)c3ccccc23)c1` the figure was 61%; with `O=C(CCc1cn(CCN2CCOCC2)c2ccccc12)Nc1ccncc1`, 63%.
Regarding `O=C(CCc1c[nH]c2ccccc12)NCc1cccnc1`, in assay [2], the inhibition entry is “inactive”.
Take `O=C(CCc1cn(Cc2ccccc2)c2ccccc12)Nc1ccncc1`: in assay [3], the Inhibition amounted to 90%. In addition, the inhibition in vivo at 0.0001 µmol/kg in assay [1] was found to be 84%.
For `Cc1cc(C)nc(NC(=O)CCc2c[nH]c3ccccc23)c1`, in that order: 66% and 72%.
The corresponding values for `C[C@@H]1C[C@H]2[C@@H]3CCC4=CC(=O)C=C[C@]4(C)[C@@]3(F)[C@@H](O)C[C@]2(C)[C@@]1(O)C(=O)CO` [DEXAMETHASONE] are 96% and 82%.
With `O=C(CCc1cn(Cc2ccc(Cl)cc2)c2ccccc12)NCc1cccnc1`, in assay [4], the ED50 turned out to be 24 µmol/kg. For the same compound, in assay [3], the Inhibition was 71%. For the same compound, the inhibition in vivo at 0.0001 µmol/kg in assay [1] amounted to 92%.
`O=C(CCc1c[nH]c2ccccc12)Nc1ccncc1` yielded an Inhibition in assay [5] of 38%. The same compound yielded an inhibition in vivo at 0.0001 µmol/kg in assay [1] of 77%.
Take `O=C(CCc1cn(Cc2ccc(Cl)cc2)c2ccccc12)Nc1ccncc1`: in assay [1], the inhibition in vivo at 0.0001 µmol/kg was determined as 72%.
In assay [3], `Cc1cc(C)nc(NC(=O)CCc2cn(Cc3ccc(Cl)cc3)c3ccc(Cl)cc23)c1` displayed an Inhibition of 89%. This compound registered an inhibition in vivo at 0.0001 µmol/kg in assay [1] of 83%.
In assay [3], `CC(C)Cc1ccc(C(C)C(=O)O)cc1` (configuration not stated) [IBUPROFEN] gave an Inhibition of 59%. In assay [1], this compound had an inhibition in vivo at 0.0001 µmol/kg of 35%.
On to `O=C(CCc1cn(Cc2ccc(Cl)cc2)c2ccc(Cl)cc12)NCc1cccnc1`, for which the Inhibition in assay [3] was 94%. This compound also showed an inhibition in vivo at 0.0001 µmol/kg in assay [1] of 84%.
For `Cc1cc(C)nc(NC(=O)/C=C/c2cn(Cc3ccc(F)cc3)c3ccccc23)c1`, the Inhibition in assay [3] was determined as 66%. In assay [1], this compound yielded an inhibition in vivo at 0.0001 µmol/kg of 80%.
